Measured values taken from ChEMBL document CHEMBL1201862, “PubChem BioAssay data set” (2004).
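Cells were grown in 96-well plates and exposed to each compound for 48 hours at five concentrations; endpoints were interpolated linearly between bracketing concentrations, or set to the highest concentration if not reached. GI50 marks 50% less growth.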 The source made the active and inactive calls. Cut-off read from the data, not from the text of the source: active = GI50 up to about 1.1 µM and inactive = higher.

Experiments:
Test in all cases: NCI-60 cell line screen, 48 h
[1] = tested on: MCF7
[2] = tested on: Hs-578T
[3] = tested on: MDA-MB-231
[4] = tested on: SR
[5] = tested on: NCI-H460
[6] = tested on: CAKI-1
[7] = tested on: U-251
[8] = tested on: A549
[9] = tested on: SNB-19
[10] = tested on: HCT-116
[11] = tested on: NCI-H23
[12] = tested on: TK-10
[13] = tested on: A498
[14] = tested on: HT-29
[15] = tested on: SN12C
[16] = tested on: SK-OV-3
[17] = tested on: SK-MEL-28
[18] = tested on: HCT-15
[19] = tested on: UACC-257

| SMILES | GI50 [1] | GI50 [2] | GI50 [3] | GI50 [4] | GI50 [5] | GI50 [6] | GI50 [7] | GI50 [8] | GI50 [9] | GI50 [10] | GI50 [11] | GI50 [12] | GI50 [13] | GI50 [14] | GI50 [15] | GI50 [16] | GI50 [17] | GI50 [18] [µM] | GI50 [19] |
| --- | --- | --- | --- | --- | --- | --- | --- | --- | --- | --- | --- | --- | --- | --- | --- | --- | --- | --- | --- |
| CC(=O)CC(=O)Nc1ccc2ccccc2c1 | 74.3 µM (inactive) | > 100 µM (inactive) | > 100 µM (inactive) | 51.5 µM (inactive) | > 100 µM (inactive) | 84.3 µM (inactive) | > 100 µM (inactive) | > 100 µM (inactive) | > 100 µM (inactive) | > 100 µM (inactive) | 86.9 µM (inactive) | 65.8 µM (inactive) | > 100 µM (inactive) | > 100 µM (inactive) | > 100 µM (inactive) | > 100 µM (inactive) | > 100 µM (inactive) | 95.3 | 51.9 µM (inactive) |
| CCOC(=O)C(Cc1ccc(N(CCCl)CCCl)cc1)NC(=O)C(Cc1ccccc1)NC=O (centres undefined) | 0.143 µM (active) | 0.388 µM (active) | 0.262 µM (active) | 0.00811 µM (active) | 0.261 µM (active) | 0.0385 µM (active) | 0.205 µM (active) | 0.431 µM (active) | 0.421 µM (active) | 0.286 µM (active) | 0.00906 µM (active) | 0.157 µM (active) | 0.273 µM (active) | 0.142 µM (active) | 0.156 µM (active) | 0.475 µM (active) | – | 0.29 | 0.24 µM (active) |
| CCOC(=O)c1ccc(C(=O)/C(C#N)=C2\CCCN2C)[nH]1 | > 100 µM (inactive) | > 100 µM (inactive) | > 100 µM (inactive) | > 100 µM (inactive) | > 100 µM (inactive) | > 100 µM (inactive) | > 100 µM (inactive) | > 100 µM (inactive) | > 100 µM (inactive) | > 100 µM (inactive) | > 100 µM (inactive) | > 100 µM (inactive) | > 100 µM (inactive) | > 100 µM (inactive) | > 100 µM (inactive) | – | > 100 µM (inactive) | > 100 | > 100 µM (inactive) |
| COc1cc(-c2c(C#N)c(N)c(C#N)c3c2COc2ccccc2-3)cc(OC)c1OC | > 100 µM (inactive) | 16.4 µM (inactive) | 15.1 µM (inactive) | > 74 µM (inactive) | > 77.3 µM (inactive) | 53.1 µM (inactive) | 12.4 µM (inactive) | > 100 µM (inactive) | 13.2 µM (inactive) | > 49.4 µM (inactive) | 31.6 µM (inactive) | 17.6 µM (inactive) | 39.3 µM (inactive) | > 30.6 µM (inactive) | 25.9 µM (inactive) | 14.6 µM (inactive) | > 100 µM (inactive) | > 100 | > 100 µM (inactive) |
| CC1(C)N/C(=C\[N+](=O)[O-])C(C)(C)N1O | > 10 µM (inactive) | > 10 µM (inactive) | > 10 µM (inactive) | > 10 µM (inactive) | > 10 µM (inactive) | > 10 µM (inactive) | > 10 µM (inactive) | > 10 µM (inactive) | > 10 µM (inactive) | > 10 µM (inactive) | > 10 µM (inactive) | > 10 µM (inactive) | > 10 µM (inactive) | > 10 µM (inactive) | > 10 µM (inactive) | > 10 µM (inactive) | > 10 µM (inactive) | > 10 | > 10 µM (inactive) |
| Nc1nc(Cl)cc(NCC2(O)CCCC2)n1 | > 100 µM (inactive) | > 100 µM (inactive) | > 100 µM (inactive) | > 100 µM (inactive) | > 100 µM (inactive) | > 100 µM (inactive) | > 100 µM (inactive) | > 100 µM (inactive) | – | > 100 µM (inactive) | > 100 µM (inactive) | > 100 µM (inactive) | > 100 µM (inactive) | > 100 µM (inactive) | > 100 µM (inactive) | > 100 µM (inactive) | > 100 µM (inactive) | > 100 | > 100 µM (inactive) |
| O=C(CCCN1CCc2[nH]c3cc(F)ccc3c2C1)c1ccc(F)cc1 | 4.59 µM (inactive) | 10.5 µM (inactive) | 12.5 µM (inactive) | 8.49 µM (inactive) | 10.9 µM (inactive) | > 100 µM (inactive) | 16.3 µM (inactive) | 15.8 µM (inactive) | > 100 µM (inactive) | 11.8 µM (inactive) | 14.1 µM (inactive) | 12.4 µM (inactive) | 11.8 µM (inactive) | 6.11 µM (inactive) | 14.3 µM (inactive) | – | 20.3 µM (inactive) | 16.8 | 15.4 µM (inactive) |
| CC(C)(C)OC(=O)N(O)[C@@H]1C=C[C@H](n2cnc3c(N)ncnc32)C1 | > 100 µM (inactive) | 92.3 µM (inactive) | > 100 µM (inactive) | > 100 µM (inactive) | > 100 µM (inactive) | > 100 µM (inactive) | > 100 µM (inactive) | > 100 µM (inactive) | > 100 µM (inactive) | > 100 µM (inactive) | > 100 µM (inactive) | > 100 µM (inactive) | > 100 µM (inactive) | – | > 100 µM (inactive) | > 100 µM (inactive) | > 100 µM (inactive) | > 100 | > 100 µM (inactive) |
| Cc1coc2c1CC1OC1(C)CCC1OC1(C)C2 (centres undefined) | > 100 µM (inactive) | > 100 µM (inactive) | > 100 µM (inactive) | > 100 µM (inactive) | > 100 µM (inactive) | > 100 µM (inactive) | > 100 µM (inactive) | > 100 µM (inactive) | > 100 µM (inactive) | > 100 µM (inactive) | > 100 µM (inactive) | > 100 µM (inactive) | > 100 µM (inactive) | – | > 100 µM (inactive) | > 100 µM (inactive) | > 100 µM (inactive) | > 100 | > 100 µM (inactive) |
| C[C@@]12C[C@@H](c3ccccc3O1)N1Cc3ccccc3CSC1=N2 | 50.4 µM (inactive) | > 100 µM (inactive) | > 100 µM (inactive) | > 100 µM (inactive) | 42.8 µM (inactive) | > 100 µM (inactive) | 52.8 µM (inactive) | – | > 100 µM (inactive) | 49.7 µM (inactive) | > 100 µM (inactive) | 57.7 µM (inactive) | > 100 µM (inactive) | 38.3 µM (inactive) | > 100 µM (inactive) | > 100 µM (inactive) | > 100 µM (inactive) | 37.3 | 66.5 µM (inactive) |
| CCOC(=O)C(Cc1ccc(N(CCCl)CCCl)cc1)NC(=O)C(Cc1ccccc1)NC(C)=O (centres undefined) | 0.163 µM (active) | > 0.368 µM (active) | > 0.284 µM (active) | 0.153 µM (active) | 0.222 µM (active) | 0.111 µM (active) | > 0.316 µM (active) | > 0.569 µM (active) | > 0.38 µM (active) | > 0.265 µM (active) | 0.162 µM (active) | – | > 0.288 µM (active) | – | 0.155 µM (active) | > 0.296 µM (active) | – | > 0.378 | 0.235 µM (active) |
| S=C1CC(c2ccccc2)Sc2cc(Cl)ccc2N1 (centres undefined) | 4.34 µM (inactive) | 8.91 µM (inactive) | 7.57 µM (inactive) | 3.44 µM (inactive) | 6.59 µM (inactive) | 7.71 µM (inactive) | 4.26 µM (inactive) | 5.68 µM (inactive) | 10.8 µM (inactive) | 3.03 µM (inactive) | 5.41 µM (inactive) | 16.2 µM (inactive) | – | 4.4 µM (inactive) | 8.77 µM (inactive) | 7.35 µM (inactive) | 8.73 µM (inactive) | 1.32 | 6.04 µM (inactive) |
| CC(=O)c1c(N=[N+]=[N-])c2cccc3c2n(c1=O)CCC3 | 19.8 µM (inactive) | 22.9 µM (inactive) | 13.9 µM (inactive) | 36.7 µM (inactive) | 14.4 µM (inactive) | 28.3 µM (inactive) | 17.3 µM (inactive) | 29 µM (inactive) | 32.3 µM (inactive) | 15.6 µM (inactive) | 20.8 µM (inactive) | 25.4 µM (inactive) | 21.3 µM (inactive) | 16.4 µM (inactive) | 22.1 µM (inactive) | 46.7 µM (inactive) | – | 19.7 | 16.6 µM (inactive) |
| CCS(=O)(=O)CCn1cnc2c1c(=O)n(C)c(=O)n2C | > 100 µM (inactive) | > 100 µM (inactive) | > 100 µM (inactive) | 0.0318 µM (active) | > 100 µM (inactive) | > 100 µM (inactive) | > 100 µM (inactive) | > 100 µM (inactive) | > 100 µM (inactive) | > 100 µM (inactive) | > 100 µM (inactive) | > 100 µM (inactive) | > 100 µM (inactive) | > 100 µM (inactive) | > 100 µM (inactive) | – | > 100 µM (inactive) | > 100 | > 100 µM (inactive) |
| CCOC(=O)C(=O)/C(=C/n1c(=S)[nH]c2ccc([N+](=O)[O-])cc21)C(=O)OCC | > 100 µM (inactive) | > 100 µM (inactive) | > 100 µM (inactive) | > 100 µM (inactive) | > 100 µM (inactive) | > 100 µM (inactive) | > 100 µM (inactive) | > 100 µM (inactive) | > 100 µM (inactive) | > 100 µM (inactive) | > 100 µM (inactive) | > 100 µM (inactive) | > 100 µM (inactive) | > 100 µM (inactive) | > 100 µM (inactive) | > 100 µM (inactive) | > 100 µM (inactive) | – | > 100 µM (inactive) |
| C[C@@]12c3c4ccc(C=O)c3Oc3ccc(C=O)c(c31)Oc1c(C=O)ccc(c12)O4 | > 100 µM (inactive) | > 100 µM (inactive) | > 100 µM (inactive) | 2.96 µM (inactive) | > 100 µM (inactive) | – | > 100 µM (inactive) | > 100 µM (inactive) | > 100 µM (inactive) | > 100 µM (inactive) | > 100 µM (inactive) | > 100 µM (inactive) | 31.5 µM (inactive) | > 100 µM (inactive) | > 100 µM (inactive) | > 100 µM (inactive) | > 100 µM (inactive) | > 100 | > 100 µM (inactive) |
